{"source": "ChEMBL document CHEMBL3044945", "about": "“Synthesis of 1,3,5-trisubstituted pyrazoline nucleus containing compounds and screening for antimicrobial activity” (2012)", "type_in_all_cases": "functional", "key": {"Bacillus subtilis [1]": {"tested_on": "Bacillus subtilis", "assay": "Antibacterial activity against Bacillus subtilis MTCC 441 at 1250 ug/ml after 48 hr by cup-plate method", "details": "MTCC 441, 48 h, read-out: DIZ"}, "Bacillus subtilis [2]": {"tested_on": "Bacillus subtilis", "assay": "Antibacterial activity against Bacillus subtilis MTCC 441 at 1000 ug/ml after 48 hr by cup-plate method", "details": "MTCC 441, 48 h, read-out: DIZ"}, "Bacillus subtilis [3]": {"tested_on": "Bacillus subtilis", "assay": "Antibacterial activity against Bacillus subtilis MTCC 441 at 750 ug/ml after 48 hr by cup-plate method", "details": "MTCC 441, 48 h, read-out: DIZ"}, "Bacillus subtilis [4]": {"tested_on": "Bacillus subtilis", "assay": "Antibacterial activity against Bacillus subtilis MTCC 441 at 500 ug/ml after 48 hr by cup-plate method", "details": "MTCC 441, 48 h, read-out: DIZ"}, "Bacillus subtilis [5]": {"tested_on": "Bacillus subtilis", "assay": "Antibacterial activity against Bacillus subtilis MTCC 441 at 250 ug/ml after 48 hr by cup-plate method", "details": "MTCC 441, 48 h, read-out: DIZ"}, "Bacillus subtilis [6]": {"tested_on": "Bacillus subtilis", "assay": "Antibacterial activity against Bacillus subtilis MTCC 441 at 100 ug/ml after 48 hr by cup-plate method", "details": "MTCC 441, 48 h, read-out: DIZ"}, "Micrococcus luteus": {"tested_on": "Micrococcus luteus", "assay": "Antibacterial activity against Micrococcus luteus MTCC 1538 after 24 to 48 hr by tube dilution method"}, "Escherichia coli": {"tested_on": "Escherichia coli", "assay": "Antibacterial activity against Escherichia coli MTCC 1573 after 24 to 48 hr by tube dilution method"}, "Penicillium chrysogenum [7]": {"tested_on": "Penicillium chrysogenum", "assay": "Antifungal activity against Penicillium chrysogenum MTCC 161 after 24 to 48 hr by tube dilution method"}, "Aspergillus niger [8]": {"tested_on": "Aspergillus niger", "assay": "Antifungal activity against Aspergillus niger MTCC 2546 after 24 to 48 hr by tube dilution method"}, "Pseudomonas fluorescens [9]": {"tested_on": "Pseudomonas fluorescens", "assay": "Antibacterial activity against Pseudomonas fluorescens MTCC 2421 after 24 to 48 hr by tube dilution method"}, "Bacillus pumilus": {"tested_on": "Bacillus pumilus", "assay": "Antibacterial activity against Bacillus pumilus MTCC 1456 after 24 to 48 hr by tube dilution method"}, "Pseudomonas aeruginosa": {"tested_on": "Pseudomonas aeruginosa", "assay": "Antibacterial activity against Pseudomonas aeruginosa MTCC 424 after 24 to 48 hr by tube dilution method"}, "Staphylococcus aureus": {"tested_on": "Staphylococcus aureus", "assay": "Antibacterial activity against Staphylococcus aureus MTCC 1430 after 24 to 48 hr by tube dilution method"}, "Bacillus subtilis [10]": {"tested_on": "Bacillus subtilis", "assay": "Antibacterial activity against Bacillus subtilis MTCC 441 after 24 to 48 hr by tube dilution method"}, "Penicillium chrysogenum [11]": {"tested_on": "Penicillium chrysogenum", "assay": "Antifungal activity against Penicillium chrysogenum MTCC 161 at 1250 ug/ml after 48 hr by cup-plate method", "details": "MTCC 161, 48 h, read-out: DIZ"}, "Penicillium chrysogenum [12]": {"tested_on": "Penicillium chrysogenum", "assay": "Antifungal activity against Penicillium chrysogenum MTCC 161 at 1000 ug/ml after 48 hr by cup-plate method", "details": "MTCC 161, 48 h, read-out: DIZ"}, "Penicillium chrysogenum [13]": {"tested_on": "Penicillium chrysogenum", "assay": "Antifungal activity against Penicillium chrysogenum MTCC 161 at 750 ug/ml after 48 hr by cup-plate method", "details": "MTCC 161, 48 h, read-out: DIZ"}, "Penicillium chrysogenum [14]": {"tested_on": "Penicillium chrysogenum", "assay": "Antifungal activity against Penicillium chrysogenum MTCC 161 at 500 ug/ml after 48 hr by cup-plate method", "details": "MTCC 161, 48 h, read-out: DIZ"}, "Penicillium chrysogenum [15]": {"tested_on": "Penicillium chrysogenum", "assay": "Antifungal activity against Penicillium chrysogenum MTCC 161 at 250 ug/ml after 48 hr by cup-plate method", "details": "MTCC 161, 48 h, read-out: DIZ"}, "Penicillium chrysogenum [16]": {"tested_on": "Penicillium chrysogenum", "assay": "Antifungal activity against Penicillium chrysogenum MTCC 161 at 100 ug/ml after 48 hr by cup-plate method", "details": "MTCC 161, 48 h, read-out: DIZ"}, "Aspergillus niger [17]": {"tested_on": "Aspergillus niger", "assay": "Antifungal activity against Aspergillus niger MTCC 2546 at 1250 ug/ml after 48 hr by cup-plate method", "details": "MTCC 2546, 48 h, read-out: DIZ"}, "Aspergillus niger [18]": {"tested_on": "Aspergillus niger", "assay": "Antifungal activity against Aspergillus niger MTCC 2546 at 1000 ug/ml after 48 hr by cup-plate method", "details": "MTCC 2546, 48 h, read-out: DIZ"}, "Aspergillus niger [19]": {"tested_on": "Aspergillus niger", "assay": "Antifungal activity against Aspergillus niger MTCC 2546 at 500 ug/ml after 48 hr by cup-plate method", "details": "MTCC 2546, 48 h, read-out: DIZ"}, "Aspergillus niger [20]": {"tested_on": "Aspergillus niger", "assay": "Antifungal activity against Aspergillus niger MTCC 2546 at 250 ug/ml after 48 hr by cup-plate method", "details": "MTCC 2546, 48 h, read-out: DIZ"}, "Aspergillus niger [21]": {"tested_on": "Aspergillus niger", "assay": "Antifungal activity against Aspergillus niger MTCC 2546 at 100 ug/ml after 48 hr by cup-plate method", "details": "MTCC 2546, 48 h, read-out: DIZ"}, "Pseudomonas fluorescens [22]": {"tested_on": "Pseudomonas fluorescens", "assay": "Antibacterial activity against Pseudomonas fluorescens MTCC 2421 at 1250 ug/ml after 48 hr by cup-plate method", "details": "MTCC 2421, 48 h, read-out: DIZ"}, "Pseudomonas fluorescens [23]": {"tested_on": "Pseudomonas fluorescens", "assay": "Antibacterial activity against Pseudomonas fluorescens MTCC 2421 at 1000 ug/ml after 48 hr by cup-plate method", "details": "MTCC 2421, 48 h, read-out: DIZ"}}, "data": [{"smiles": "NC(=O)N1N=C(c2cccc3ccccc23)CC1c1ccc([N+](=O)[O-])cc1", "note": "(stereo not drawn)", "values": [{"measurement": "zone of inhibition at 1250 µg/mL", "setting": "Bacillus subtilis [1]", "result": 16, "unit": "mm"}, {"measurement": "zone of inhibition at 1000 µg/mL", "setting": "Bacillus subtilis [2]", "result": 15, "unit": "mm"}, {"measurement": "zone of inhibition at 750 µg/mL", "setting": "Bacillus subtilis [3]", "result": 14, "unit": "mm"}, {"measurement": "zone of inhibition at 500 µg/mL", "setting": "Bacillus subtilis [4]", "result": 13, "unit": "mm"}, {"measurement": "zone of inhibition at 250 µg/mL", "setting": "Bacillus subtilis [5]", "result": 12, "unit": "mm"}, {"measurement": "zone of inhibition at 100 µg/mL", "setting": "Bacillus subtilis [6]", "result": 10, "unit": "mm"}, {"measurement": "MIC", "setting": "Micrococcus luteus", "result": 30, "unit": "mg/L"}, {"measurement": "MIC", "setting": "Escherichia coli", "result": 50, "unit": "mg/L"}, {"measurement": "MIC", "setting": "Penicillium chrysogenum [7]", "result": 50, "unit": "mg/L"}, {"measurement": "MIC", "setting": "Aspergillus niger [8]", "result": 50, "unit": "mg/L"}, {"measurement": "MIC", "setting": "Pseudomonas fluorescens [9]", "result": 200, "unit": "mg/L"}, {"measurement": "MIC", "setting": "Bacillus pumilus", "result": 50, "unit": "mg/L"}, {"measurement": "MIC", "setting": "Pseudomonas aeruginosa", "result": 200, "unit": "mg/L"}, {"measurement": "MIC", "setting": "Staphylococcus aureus", "result": 50, "unit": "mg/L"}, {"measurement": "MIC", "setting": "Bacillus subtilis [10]", "result": 15, "unit": "mg/L"}, {"measurement": "zone of inhibition at 1250 µg/mL", "setting": "Penicillium chrysogenum [11]", "result": 13, "unit": "mm"}, {"measurement": "zone of inhibition at 1000 µg/mL", "setting": "Penicillium chrysogenum [12]", "result": 12, "unit": "mm"}, {"measurement": "zone of inhibition at 750 µg/mL", "setting": "Penicillium chrysogenum [13]", "result": 11, "unit": "mm"}, {"measurement": "zone of inhibition at 500 µg/mL", "setting": "Penicillium chrysogenum [14]", "result": 10, "unit": "mm"}, {"measurement": "zone of inhibition at 250 µg/mL", "setting": "Penicillium chrysogenum [15]", "result": 9, "unit": "mm"}, {"measurement": "zone of inhibition at 100 µg/mL", "setting": "Penicillium chrysogenum [16]", "result": 8, "unit": "mm"}, {"measurement": "zone of inhibition at 1250 µg/mL", "setting": "Aspergillus niger [17]", "result": 19, "unit": "mm"}, {"measurement": "zone of inhibition at 1000 µg/mL", "setting": "Aspergillus niger [18]", "result": 17, "unit": "mm"}, {"measurement": "zone of inhibition at 500 µg/mL", "setting": "Aspergillus niger [19]", "result": 13, "unit": "mm"}, {"measurement": "zone of inhibition at 250 µg/mL", "setting": "Aspergillus niger [20]", "result": 11, "unit": "mm"}, {"measurement": "zone of inhibition at 100 µg/mL", "setting": "Aspergillus niger [21]", "result": 10, "unit": "mm"}, {"measurement": "zone of inhibition at 1250 µg/mL", "setting": "Pseudomonas fluorescens [22]", "result": 14, "unit": "mm"}, {"measurement": "zone of inhibition at 1000 µg/mL", "setting": "Pseudomonas fluorescens [23]", "result": 12, "unit": "mm"}]}]}
